Values of other authors as cited in PMC7904743, “WIDOCK: a reactive docking protocol for virtual screening of covalent inhibitors” (Journal of Computer-Aided Molecular Design, 2021).
Read-outs that look alike come from different tables or passages of the source.

Experiments:
NUDT7 = conditions: protein labeling at 200 μM; experimental actives if % labeling higher than 50%; cited from earlier work
OTUB2 = conditions: experimental actives if % labeling higher than 50%, cited from earlier work
[1] = thiol reactivity, cited from earlier work
[2] = natural log of average kinetic rate constant
[3] = natural log of average rate constant
[4] = natural log of average rate constant k
[5] = natural logarithm of average rate constant

SMILES: COC(=O)c1cc(Cl)cc(Cl)c1NC(=O)CCl [PCM-0102912, COC(=O)c1cc(Cl)cc(Cl)c1NC(=O)CCl]
- NUDT7 % labeling (NUDT7): 17%
- OTUB2 % labeling (OTUB2; OTUB2 protein labeling): 0%
- ln(avg k) [1, 2]: -17.100
- ln(avg k) [1, 3]: -17.100

SMILES: CCC1c2ccsc2CCN1C(=O)CCl (stereo not shown) [PCM-0103051, CCC1c2ccsc2CCN1C(=O)CCl]
- NUDT7 % labeling (NUDT7): 30%
- OTUB2 % labeling (OTUB2; OTUB2 protein labeling): 0%
- ln(avg k) [1, 2]: -15.594
- ln(avg k) [1, 3]: -15.594

SMILES: O=C(CCl)N1CCN(Cc2ccc(Br)s2)CC1 [PCM-0102169, O=C(CCl)N1CCN(Cc2ccc(Br)s2)CC1]
- NUDT7 % labeling (NUDT7): 0%
- OTUB2 % labeling (OTUB2): 0%
- ln(avg k) [1, 4]: -15.949
- ln(avg k) [1, 5]: -15.949

SMILES: Cc1ccc(-c2cc(NC(=O)CCl)on2)cc1 [PCM-0102382, Cc1ccc(-c2cc(NC(=O)CCl)on2)cc1]
- NUDT7 % labeling (NUDT7): 81%
- OTUB2 % labeling (OTUB2): 45%
- ln(avg k) [1, 4]: -15.819
- ln(avg k) [1, 5]: -15.819

SMILES: O=C(CCl)NNC(=O)c1ccccc1F [PCM-0102510, O=C(CCl)NNC(=O)c1ccccc1F]
- NUDT7 % labeling (NUDT7): 0%
- OTUB2 % labeling (OTUB2): 52%
- ln(avg k) [1, 4]: -17.412
- ln(avg k) [1, 5]: -17.412

SMILES: CC1CCc2ccccc2N1C(=O)CCl (stereo not shown) [PCM-0102822, CC1CCc2ccccc2N1C(=O)CCl]
- NUDT7 % labeling (NUDT7): 0%
- OTUB2 % labeling (OTUB2; OTUB2 protein labeling): 0%
- ln(avg k) [1, 2]: -16.310
- ln(avg k) [1, 3]: -16.310

SMILES: O=C(CCl)N(c1ccccc1)C1CCS(=O)(=O)C1 (stereo not shown) [PCM-0102755, O=C(CCl)N(c1ccccc1)C1CCS(=O)(=O)C1]
- NUDT7 % labeling (NUDT7): 17%
- OTUB2 % labeling (OTUB2; OTUB2 protein labeling): 0%
- ln(avg k) [1, 2]: -15.253
- ln(avg k) [1, 3]: -15.253

SMILES: CC(NC(=O)CCl)c1cc2ccccc2o1 (stereo not shown) [PCM-0102117, CC(NC(=O)CCl)c1cc2ccccc2o1]
- NUDT7 % labeling (NUDT7): 12%
- OTUB2 % labeling (OTUB2): 41%
- ln(avg k) [1, 4]: -16.443
- ln(avg k) [1, 5]: -16.443

SMILES: O=C(CCl)N1CCN(S(=O)(=O)c2ccc(Cl)cc2)CC1 [PCM-0102704, O=C(CCl)N1CCN(S(=O)(=O)c2ccc(Cl)cc2)CC1]
- NUDT7 % labeling (NUDT7): 25%
- OTUB2 % labeling (OTUB2): 0%
- ln(avg k) [1, 3]: -15.137
- ln(avg k) [1, 5]: -15.137

SMILES: O=C(CCl)Nc1cc(Cl)ccc1F [PCM-0102762, O=C(CCl)Nc1cc(Cl)ccc1F]
- NUDT7 % labeling (NUDT7): 0%
- OTUB2 % labeling (OTUB2; OTUB2 protein labeling): 13%
- ln(avg k) [1, 2]: -15.818
- ln(avg k) [1, 3]: -15.818

SMILES: O=C(CCl)NCc1cccs1 [PCM-0102280, O=C(CCl)NCc1cccs1]
- NUDT7 % labeling (NUDT7): 0%
- OTUB2 % labeling (OTUB2): 22%
- ln(avg k) [1, 4]: -16.889
- ln(avg k) [1, 5]: -16.889

SMILES: Cc1ccc2nc(NC(=O)CCl)sc2c1 [PCM-0103031, Cc1ccc2nc(NC(=O)CCl)sc2c1]
- NUDT7 % labeling (NUDT7): 88%
- OTUB2 % labeling (OTUB2; OTUB2 protein labeling): 18%
- ln(avg k) [1, 2]: -15.473
- ln(avg k) [1, 3]: -15.473

SMILES: CC1CC(C)CN(C(=O)CCl)C1 (stereo not shown) [PCM-0102789, CC1CC(C)CN(C(=O)CCl)C1]
- NUDT7 % labeling (NUDT7): 0%
- OTUB2 % labeling (OTUB2; OTUB2 protein labeling): 8%
- ln(avg k) [1, 2]: -16.705
- ln(avg k) [1, 3]: -16.705

SMILES: CC(c1ccc(F)cc1)N(C)C(=O)CCl (stereo not shown) [PCM-0102783, CC(c1ccc(F)cc1)N(C)C(=O)CCl]
- NUDT7 % labeling (NUDT7): 19%
- OTUB2 % labeling (OTUB2; OTUB2 protein labeling): 0%
- ln(avg k) [1, 2]: -16.224
- ln(avg k) [1, 3]: -16.224

SMILES: O=C(CCl)N1CCC(C(=O)N2CCCC2)CC1 [PCM-0102655, O=C(CCl)N1CCC(C(=O)N2CCCC2)CC1]
- NUDT7 % labeling (NUDT7): 0%
- OTUB2 % labeling (OTUB2): 0%
- ln(avg k) [1, 4]: -15.795
- ln(avg k) [1, 5]: -15.795

SMILES: O=C(CCl)N1CCN(Cc2ccc(Cl)s2)CC1 [PCM-0102277, O=C(CCl)N1CCN(Cc2ccc(Cl)s2)CC1]
- NUDT7 % labeling (NUDT7): 0%
- OTUB2 % labeling (OTUB2): 9%
- ln(avg k) [1, 4]: -15.648
- ln(avg k) [1, 5]: -15.648

SMILES: Cc1ccc(CNC(=O)CCl)s1 [PCM-0102973, Cc1ccc(CNC(=O)CCl)s1]
- NUDT7 % labeling (NUDT7): 11%
- OTUB2 % labeling (OTUB2; OTUB2 protein labeling): 75%
- ln(avg k) [1, 2]: -16.818
- ln(avg k) [1, 3]: -16.818

SMILES: Cc1ccccc1C(=O)NC1CCN(C(=O)CCl)CC1 [PCM-0103013, Cc1ccccc1C(=O)NC1CCN(C(=O)CCl)CC1]
- NUDT7 % labeling (NUDT7): 0%
- OTUB2 % labeling (OTUB2; OTUB2 protein labeling): 0%
- ln(avg k) [1, 2]: -15.378
- ln(avg k) [1, 3]: -15.378

SMILES: Cc1cc(C)c(C(C)NC(=O)CCl)cc1C (stereo not shown) [PCM-0102879, Cc1cc(C)c(C(C)NC(=O)CCl)cc1C]
- NUDT7 % labeling (NUDT7): 0%
- OTUB2 % labeling (OTUB2; OTUB2 protein labeling): 17%
- ln(avg k) [1, 2]: -16.314
- ln(avg k) [1, 3]: -16.314

SMILES: O=C(CCl)Nc1ccc(N2CCOCC2)cc1 [PCM-0102582, O=C(CCl)Nc1ccc(N2CCOCC2)cc1]
- NUDT7 % labeling (NUDT7): 0%
- OTUB2 % labeling (OTUB2): 54%
- ln(avg k) [1, 4]: -15.715
- ln(avg k) [1, 5]: -15.715

SMILES: CC(=O)c1cc2c(cc1NC(=O)CCl)OCO2 [PCM-0103010, CC(=O)c1cc2c(cc1NC(=O)CCl)OCO2]
- NUDT7 % labeling (NUDT7): 14%
- OTUB2 % labeling (OTUB2; OTUB2 protein labeling): 0%
- ln(avg k) [1, 2]: -17.333
- ln(avg k) [1, 3]: -17.333

SMILES: O=C(CCl)NCC1CCCc2ccccc21 (stereo not shown) [PCM-0102794, O=C(CCl)NCC1CCCc2ccccc21]
- NUDT7 % labeling (NUDT7): 0%
- OTUB2 % labeling (OTUB2; OTUB2 protein labeling): 34%
- ln(avg k) [1, 2]: -16.479
- ln(avg k) [1, 3]: -16.479

SMILES: CC1Cc2cc(S(N)(=O)=O)ccc2N1C(=O)CCl (stereo not shown) [PCM-0102207, CC1Cc2cc(S(N)(=O)=O)ccc2N1C(=O)CCl]
- NUDT7 % labeling (NUDT7): 7%
- OTUB2 % labeling (OTUB2): 0%
- ln(avg k) [1, 4]: -15.427
- ln(avg k) [1, 5]: -15.427

SMILES: O=C(CCl)N1c2ccccc2NC(=O)C12CCCC2 [PCM-0102159, O=C(CCl)N1c2ccccc2NC(=O)C12CCCC2]
- NUDT7 % labeling (NUDT7): 18%
- OTUB2 % labeling (OTUB2): 0%
- ln(avg k) [1, 4]: -14.824
- ln(avg k) [1, 5]: -14.824

SMILES: CC(C)(C)CCNC(=O)CCl [PCM-0102853, CC(C)(C)CCNC(=O)CCl]
- NUDT7 % labeling (NUDT7): 0%
- OTUB2 % labeling (OTUB2; OTUB2 protein labeling): 0%
- ln(avg k) [1, 2]: -17.028
- ln(avg k) [1, 3]: -17.028

SMILES: CN(Cc1ccccc1)C(=O)CCl [PCM-0102984, CN(Cc1ccccc1)C(=O)CCl]
- NUDT7 % labeling (NUDT7): 11%
- OTUB2 % labeling (OTUB2; OTUB2 protein labeling): 0%
- ln(avg k) [1, 2]: -16.386
- ln(avg k) [1, 3]: -16.386

SMILES: Cc1ccc([N+](=O)[O-])cc1NC(=O)CCl [PCM-0102098, Cc1ccc([N+](=O)[O-])cc1NC(=O)CCl]
- NUDT7 % labeling (NUDT7): 12%
- OTUB2 % labeling (OTUB2): 33%
- ln(avg k) [1, 4]: -15.712
- ln(avg k) [1, 5]: -15.712

SMILES: Cc1ccc(S(N)(=O)=O)cc1NC(=O)CCl [PCM-0102744, Cc1ccc(S(N)(=O)=O)cc1NC(=O)CCl]
- NUDT7 % labeling (NUDT7): 0%
- OTUB2 % labeling (OTUB2; OTUB2 protein labeling): 10%
- ln(avg k) [1, 2]: -16.170
- ln(avg k) [1, 3]: -16.170

SMILES: CN(C(=O)CCl)C1(C#N)CCCCC1 [PCM-0102916, CN(C(=O)CCl)C1(C#N)CCCCC1]
- NUDT7 % labeling (NUDT7): 0%
- OTUB2 % labeling (OTUB2; OTUB2 protein labeling): 0%
- ln(avg k) [1, 2]: -15.114
- ln(avg k) [1, 3]: -15.114

SMILES: COCC(=O)NC(=O)CCl [PCM-0102904, COCC(=O)NC(=O)CCl]
- NUDT7 % labeling (NUDT7): 0%
- OTUB2 % labeling (OTUB2; OTUB2 protein labeling): 0%
- ln(avg k) [1, 2]: -18.669
- ln(avg k) [1, 3]: -18.669

SMILES: CNC(=O)NC(=O)CCl [PCM-0102534, CNC(=O)NC(=O)CCl]
- NUDT7 % labeling (NUDT7): 0%
- OTUB2 % labeling (OTUB2): 0%
- ln(avg k) [1, 4]: -16.522
- ln(avg k) [1, 5]: -16.522

SMILES: O=C(CCl)NCC(F)(F)F [PCM-0102456, O=C(CCl)NCC(F)(F)F]
- NUDT7 % labeling (NUDT7): 0%
- OTUB2 % labeling (OTUB2): 0%
- ln(avg k) [1, 4]: -18.378
- ln(avg k) [1, 5]: -18.378

SMILES: COC(=O)c1ccc(NC(=O)CCl)cc1 [PCM-0102204, COC(=O)c1ccc(NC(=O)CCl)cc1]
- NUDT7 % labeling (NUDT7): 0%
- OTUB2 % labeling (OTUB2): 0%
- ln(avg k) [1, 4]: -15.628
- ln(avg k) [1, 5]: -15.628

SMILES: O=C(CCl)Nc1ccc(N2CCCC2=O)cc1 [PCM-0102915, O=C(CCl)Nc1ccc(N2CCCC2=O)cc1]
- NUDT7 % labeling (NUDT7): 0%
- OTUB2 % labeling (OTUB2; OTUB2 protein labeling): 49%
- ln(avg k) [1, 2]: -15.819
- ln(avg k) [1, 3]: -15.819
